Measurements: PMC6979384, “Characterization of the plant homeodomain (PHD) reader family for their histone tail interactions” (Epigenetics & Chromatin, 2020)

Tests used:
Assay in all cases: Histone peptide microarray
Type in all cases: binding, human
Conditions in all cases: sheet "Array Heatmap"
PHRF1 (RP) = test system: PHRF1 (RP)
Outline: (§1)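 GST-tagged PHD finger readers were expressed, purified and applied at 0.5 μM to a microarray of 293 synthetic histone peptides carrying single or combinatorial PTMs, using an optimized protocol. Binding signals are averages with standard deviation from 4 replicates.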

KDM5B (3) = test system: KDM5B (3)
Outline: as §1

ING2 = test system: ING2
Outline: as §1

KDM4C (TTP) = test system: KDM4C (TTP)
Outline: as §1

DIDO1 = test system: DIDO1
Outline: as §1

ING5 = test system: ING5
Outline: as §1

DPF2 (PPC2W2) = test system: DPF2 (PPC2W2)
Outline: as §1

PHF8 = test system: PHF8
Outline: as §1

ING4 = test system: ING4
Outline: as §1

SP140L = test system: SP140L
Outline: as §1

CHD5 (PPCC) = test system: CHD5 (PPCC)
Outline: as §1

TRIM66 (PB) = test system: TRIM66 (PB)
Outline: as §1

PHF2 = test system: PHF2
Outline: as §1

ING3 = test system: ING3
Outline: as §1

CHD4 (PPCC) = test system: CHD4 (PPCC)
Outline: as §1

AIRE (PP) = test system: AIRE (PP)
Outline: as §1

KDM5A (1) = test system: KDM5A (1)
Outline: as §1

MORC3 (CW) = test system: MORC3 (CW)
Outline: as §1

MLL5 = test system: MLL5
Outline: as §1

TAF3 = test system: TAF3
Outline: as §1

ING1 = test system: ING1
Outline: as §1

KDM7A = test system: KDM7A
Outline: as §1

CHD5 (PCC) = test system: CHD5 (PCC)
Outline: as §1

KDM5A (3) = test system: KDM5A (3)
Outline: as §1

PHF13 = test system: PHF13
Outline: as §1

BAZ2B = test system: BAZ2B
Outline: as §1

RAG2 = test system: RAG2
Outline: as §1

BPTF (PB) = test system: BPTF (PB)
Outline: as §1

PHF23 = test system: PHF23
Outline: as §1

PHF21A = test system: PHF21A
Outline: as §1

KDM5B (1) = test system: KDM5B (1)
Outline: as §1

[1] = GST-tagged reader, histone peptide array, total n = 4

“H3 (74-84): H3 74-84 (IAQDFKTDLRF; UniProt P68431 75-85, looked up, fragment)” was tested, and the “Array Heatmap signal, PHRF1 (RP)” value (PHRF1 (RP); [1]) was 0.4358, the “Array Heatmap signal, KDM5B (3)” value (KDM5B (3); [1]) was 0.5142 and the “Array Heatmap signal, ING2” value (ING2; [1]) was 0.5988. For the same substance, the “Array Heatmap signal, KDM4C (TTP)” value (KDM4C (TTP); [1]) was 0.5485, the “Array Heatmap signal, DIDO1” value (DIDO1; [1]) was 0.6796 and the “Array Heatmap signal, ING5” value (ING5; [1]) was 0.3977. For the same substance, the “Array Heatmap signal, DPF2 (PPC2W2)” value (DPF2 (PPC2W2); [1]) was 0.6874, the “Array Heatmap signal, PHF8” value (PHF8; [1]) was 0.3649 and the “Array Heatmap signal, ING4” value (ING4; [1]) was 0.5059. For the same substance, the “Array Heatmap signal, SP140L” value (SP140L; [1]) was 0.3639, the “Array Heatmap signal, CHD5 (PPCC)” value (CHD5 (PPCC); [1]) was 0.6043 and the “Array Heatmap signal, TRIM66 (PB)” value (TRIM66 (PB); [1]) was 0.6388. For the same substance, the “Array Heatmap signal, PHF2” value (PHF2; [1]) was 0.4839, the “Array Heatmap signal, ING3” value (ING3; [1]) was 0.4892 and the “Array Heatmap signal, CHD4 (PPCC)” value (CHD4 (PPCC); [1]) was 0.6103. For the same substance, the “Array Heatmap signal, AIRE (PP)” value (AIRE (PP); [1]) was 0.5836, the “Array Heatmap signal, KDM5A (1)” value (KDM5A (1); [1]) was 0.5057 and the “Array Heatmap signal, MORC3 (CW)” value (MORC3 (CW); [1]) was 0.3965. The “Array Heatmap signal, MLL5” value (MLL5; [1]) was 0.5674, the “Array Heatmap signal, TAF3” value (TAF3; [1]) was 0.2746 and the “Array Heatmap signal, ING1” value (ING1; [1]) was 0.527. The “Array Heatmap signal, KDM7A” value (KDM7A; [1]) was 0.4511, the “Array Heatmap signal, CHD5 (PCC)” value (CHD5 (PCC); [1]) was 0.8536 and the “Array Heatmap signal, KDM5A (3)” value (KDM5A (3); [1]) was 0.4265. The “Array Heatmap signal, PHF13” value (PHF13; [1]) was 0.6585, the “Array Heatmap signal, BAZ2B” value (BAZ2B; [1]) was 0.5314 and the “Array Heatmap signal, RAG2” value (RAG2; [1]) was 0.2597. The “Array Heatmap signal, BPTF (PB)” value (BPTF (PB); [1]) was 0.3631, the “Array Heatmap signal, PHF23” value (PHF23; [1]) was 0.5211 and the “Array Heatmap signal, PHF21A” value (PHF21A; [1]) was 0.5055. The “Array Heatmap signal, KDM5B (1)” value (KDM5B (1); [1]) was 0.6254.

With H3.3 15-34: H3.3 15-34 the “Array Heatmap signal, PHRF1 (RP)” value (PHRF1 (RP); GST-tagged PHRF1 (RP), arrays performed twice, total replicate number n = 4) was 0.4107, the “Array Heatmap signal, KDM5B (3)” value (KDM5B (3); GST-tagged KDM5B (3), arrays performed twice, total replicate number n = 4) was 0.5078 and the “Array Heatmap signal, ING2” value (ING2; GST-tagged ING2, arrays performed twice, total replicate number n = 4) was 0.6004. The “Array Heatmap signal, KDM4C (TTP)” value (KDM4C (TTP); GST-tagged KDM4C (TTP), arrays performed twice, total replicate number n = 4) was 0.5726, the “Array Heatmap signal, DIDO1” value (DIDO1; GST-tagged DIDO1, arrays performed twice, total replicate number n = 4) was 0.6133 and the “Array Heatmap signal, ING5” value (ING5; GST-tagged ING5, arrays performed twice, total replicate number n = 4) was 0.3926. For the same substance, the “Array Heatmap signal, DPF2 (PPC2W2)” value (DPF2 (PPC2W2); GST-tagged DPF2 (PPC2W2), arrays performed twice, total replicate number n = 4) was 0.6732, the “Array Heatmap signal, PHF8” value (PHF8; GST-tagged PHF8, arrays performed twice, total replicate number n = 4) was 0.386 and the “Array Heatmap signal, ING4” value (ING4; GST-tagged ING4, arrays performed twice, total replicate number n = 4) was 0.4948. For the same substance, the “Array Heatmap signal, SP140L” value (SP140L; GST-tagged SP140L, arrays performed twice, total replicate number n = 4) was 0.3703, the “Array Heatmap signal, CHD5 (PPCC)” value (CHD5 (PPCC); GST-tagged CHD5 (PPCC), arrays performed twice, total replicate number n = 4) was 0.5888 and the “Array Heatmap signal, TRIM66 (PB)” value (TRIM66 (PB); GST-tagged TRIM66 (PB), arrays performed twice, total replicate number n = 4) was 0.563. The “Array Heatmap signal, PHF2” value (PHF2; GST-tagged PHF2, arrays performed twice, total replicate number n = 4) was 0.4208, the “Array Heatmap signal, ING3” value (ING3; GST-tagged ING3, arrays performed twice, total replicate number n = 4) was 0.4684 and the “Array Heatmap signal, CHD4 (PPCC)” value (CHD4 (PPCC); GST-tagged CHD4 (PPCC), arrays performed twice, total replicate number n = 4) was 0.5508. For the same substance, the “Array Heatmap signal, AIRE (PP)” value (AIRE (PP); GST-tagged AIRE (PP), arrays performed twice, total replicate number n = 4) was 0.5768, the “Array Heatmap signal, KDM5A (1)” value (KDM5A (1); GST-tagged KDM5A (1), arrays performed twice, total replicate number n = 4) was 0.5272 and the “Array Heatmap signal, MORC3 (CW)” value (MORC3 (CW); GST-tagged MORC3 (CW), arrays performed twice, total replicate number n = 4) was 0.367. The “Array Heatmap signal, MLL5” value (MLL5; GST-tagged MLL5, arrays performed twice, total replicate number n = 4) was 0.5484, the “Array Heatmap signal, TAF3” value (TAF3; GST-tagged TAF3, arrays performed twice, total replicate number n = 4) was 0.298 and the “Array Heatmap signal, ING1” value (ING1; GST-tagged ING1, arrays performed twice, total replicate number n = 4) was 0.5055. The “Array Heatmap signal, KDM7A” value (KDM7A; GST-tagged KDM7A, arrays performed twice, total replicate number n = 4) was 0.5038, the “Array Heatmap signal, CHD5 (PCC)” value (CHD5 (PCC); GST-tagged CHD5 (PCC), arrays performed twice, total replicate number n = 4) was 0.807 and the “Array Heatmap signal, KDM5A (3)” value (KDM5A (3); GST-tagged KDM5A (3), arrays performed twice, total replicate number n = 4) was 0.4324. For the same substance, the “Array Heatmap signal, PHF13” value (PHF13; GST-tagged PHF13, arrays performed twice, total replicate number n = 4) was 0.6359, the “Array Heatmap signal, BAZ2B” value (BAZ2B; GST-tagged BAZ2B, arrays performed twice, total replicate number n = 4) was 0.5105 and the “Array Heatmap signal, RAG2” value (RAG2; GST-tagged RAG2, arrays performed twice, total replicate number n = 4) was 0.2498. The “Array Heatmap signal, BPTF (PB)” value (BPTF (PB); GST-tagged BPTF (PB), arrays performed twice, total replicate number n = 4) was 0.3589, the “Array Heatmap signal, PHF23” value (PHF23; GST-tagged PHF23, arrays performed twice, total replicate number n = 4) was 0.5121 and the “Array Heatmap signal, PHF21A” value (PHF21A; GST-tagged PHF21A, arrays performed twice, total replicate number n = 4) was 0.4988. For the same substance, the “Array Heatmap signal, KDM5B (1)” value (KDM5B (1); GST-tagged KDM5B (1), arrays performed twice, total replicate number n = 4) was 0.7186.
